According to US20250197248A1, “WATER TREATMENT SYSTEM” (KEMIRA OYJ, priority 2022, published 2025):

Experiments:
[1] = tested on: E. coli; experiment: Disinfection efficacy of PFA in wastewater samples, colony count (USEPA method 10029); type: cell-based; conditions: S2 (50% secondary + 50% primary-only wastewater, 30 min contact) versus S1 (secondary-treated wastewater, 90 min contact); FIG. 4B
Description: (§1) The disinfection efficacy of PFA against fecal coliform and E. coli was assessed in wastewater (WW) that had undergone secondary treatment (S1), and in a mixed wastewater sample comprising 50% wastewater that had undergone secondary treatment and 50% wastewater that had undergone primary treatment without secondary treatment (S2). The S2 sample would have inevitably contained higher levels of TSS, increased organic matter and increased microbial content.
(§2) WW samples were collected and stored at 4° C. […] until use (within 1 to 3 days). A PFA solution was prepared immediately prior to use by mixing 2.5 mL of 35% hydrogen peroxide with 2.5 mL of DEX®-A375 (a mixture of formic and sulfuric acids). The resultant mixture was incubated for 5 minutes at 4° C. and subsequently for 25 minutes at room temperature to complete formation of the 9.5% PFA solution. The 9.5% PFA solution was diluted to 950 mg/L by adding 0.2 mL of the 9.5% PFA solution to 19.8 mL distilled water.
(§3) WW samples were dosed with PFA to determine efficacy after set contact times. A shorter 30 minute contact time was used for the S2 samples to emulate the shorter contact times that would occur in a CSO event when the volume and rate of flow of water through the WW treatment system is increased. […] After incubation, the number of colonies was counted. […]

[2] = tested on: fecal coliform; experiment: as above; type: cell-based; conditions: S2 (50% secondary + 50% primary-only wastewater, 30 min contact) versus S1 (secondary-treated wastewater, 90 min contact); FIG. 4A
Description: as §1, §2, §3

[3] = Residual PFA over time in dosed wastewater samples (CHEMetrics test kit); type: physicochemical; conditions: doses 0.5, 1 and 2 ppm; S2 samples versus S1 samples; FIG. 5
Description: Varying doses of PFA (0.5 ppm, 1 ppm, and 2 ppm) were dosed into S1 and S2 wastewater samples as described in Example 1. Residual levels of PFA were measured using a CHEMetrics test kit for PAA with vacuum ampules detecting in the 0-5 ppm range (Maffettone, 2020). PFA values were obtained by multiplying the PAA results by 0.82 (Maffettone, 2020). The factor of 0.82 for conversion of PAA to PFA corresponds to the molecular weight ratio of PFA (62.02 g/mol) to PAA (76.05 g/mol). Due to the fast degradation of PFA, residual PFA concentrations were determined immediately following the sample collection.

With O=COO [PFA, performic acid] the “disinfection efficacy against E. coli” value [1] was “significantly reduced”, the “disinfection efficacy against fecal coliform” value [2] was “significantly reduced” and the “residual PFA levels over time (degradation in wastewater)” value [3] was “decrease more rapidly over time in S2 samples than in S1 samples”.
